In the NIST ThermoML archive (doi:10.1021/je200830j):

What was measured:
[1] = 101.33 kPa, Liquid; for mass density: Vibrating tube method; for viscosity: Vibrating wire viscometry
[2] = xn = mol fraction of the nth substance listed; settings: 101 kPa, Liquid, Capillary tube (Ostwald / Ubbelohde) method

CCCCCCCCCCCCCC[P+](CCCCCC)(CCCCCC)CCCCCC.N#C[N-]C#N [tetradecyl(trihexyl)phosphonium dicyanamide]
[1]
Settings | mass density [kg/m3] | viscosity [mPa·s]
290.66 K | 902.3 | –
293.14 K | – | 505.9
293.15 K | 900.9 | –
293.16 K | 900.9 | –
295.65 K | 899.5 | –
295.66 K | 899.5 | –
298.15 K | 898 | –
298.16 K | 898 | –
298.2 K | – | 378
300.65 K | 896.6 | –
300.66 K | 896.6 | –
303.15 K | 895.1 | –
303.16 K | 895.1 | –
303.18 K | – | 288
305.65 K | 893.7 | –
308.15 K | 892.3 | –
308.16 K | 892.3 | –
308.2 K | – | 219.9
310.65 K | 890.9 | –
310.66 K | 890.9 | –
313.15 K | 889.5 | –
313.16 K | 889.5 | –
313.18 K | – | 171.1
315.65 K | 888.1 | –
318.15 K | 886.7 | –
318.19 K | – | 134.4
320.65 K | 885.3 | –

CCCCCCCCCCCCCC[P+](CCCCCC)(CCCCCC)CCCCCC.N#C[N-]C#N [tetradecyl(trihexyl)phosphonium dicyanamide] + O
[2]
Settings | viscosity [mPa·s]
298.17 K, x2 = 0.275 | 372.8
298.17 K, x2 = 0.4 | 362.7
303.11 K, x2 = 0.198 | 284.53
303.13 K, x2 = 0.275 | 282.44
308.09 K, x2 = 0.275 | 217.15
317.92 K, x2 = 0.198 | 135.23
